Consider 1 compound from ChEMBL document CHEMBL4043168, “The design and SAR of a novel series of 2-aminopyridine based LRRK2 inhibitors” (Bioorg Med Chem Lett, 2017).

SMILES strings stand for the structures.

Experiment [1] addresses T1, Phosphatidylinositol 4,5-bisphosphate 3-kinase catalytic subunit delta isoform (Homo sapiens) (UniProt O00329).
T1 sequence (whole entry): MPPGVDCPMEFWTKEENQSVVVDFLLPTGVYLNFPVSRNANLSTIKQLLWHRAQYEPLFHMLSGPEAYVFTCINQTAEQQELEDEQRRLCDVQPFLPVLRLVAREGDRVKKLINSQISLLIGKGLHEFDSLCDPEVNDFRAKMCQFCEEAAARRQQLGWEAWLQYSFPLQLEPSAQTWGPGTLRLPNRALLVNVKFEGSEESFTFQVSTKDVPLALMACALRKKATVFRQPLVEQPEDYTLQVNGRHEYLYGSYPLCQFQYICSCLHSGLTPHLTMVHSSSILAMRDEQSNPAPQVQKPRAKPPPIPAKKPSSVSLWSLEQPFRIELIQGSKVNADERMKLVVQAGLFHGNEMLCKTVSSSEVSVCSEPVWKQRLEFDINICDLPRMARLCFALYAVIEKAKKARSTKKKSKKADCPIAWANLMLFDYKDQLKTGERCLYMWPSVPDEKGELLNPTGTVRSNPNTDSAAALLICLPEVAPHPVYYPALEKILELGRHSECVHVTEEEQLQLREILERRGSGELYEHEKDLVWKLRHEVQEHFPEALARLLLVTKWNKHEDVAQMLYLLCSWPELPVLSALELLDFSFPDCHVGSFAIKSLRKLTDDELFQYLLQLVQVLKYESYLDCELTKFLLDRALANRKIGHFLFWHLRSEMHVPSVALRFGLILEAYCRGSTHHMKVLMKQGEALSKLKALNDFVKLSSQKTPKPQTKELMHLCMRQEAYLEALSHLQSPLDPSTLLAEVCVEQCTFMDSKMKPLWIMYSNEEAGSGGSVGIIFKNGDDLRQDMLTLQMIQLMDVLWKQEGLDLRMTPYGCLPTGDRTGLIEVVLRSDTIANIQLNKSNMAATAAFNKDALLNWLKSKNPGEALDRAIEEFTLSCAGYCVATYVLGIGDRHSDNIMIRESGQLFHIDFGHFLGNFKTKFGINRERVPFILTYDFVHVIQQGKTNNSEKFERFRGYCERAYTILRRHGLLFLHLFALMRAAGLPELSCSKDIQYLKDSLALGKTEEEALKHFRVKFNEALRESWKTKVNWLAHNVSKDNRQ
Nature of the experiment: Inhibition of PIK3CD ATP binding site (VNWLAHNVSKDNRQ) in human PBMC at 1 uM.

In experiment [2] the target is Kinase suppressor of Ras 1 (Homo sapiens) (UniProt Q8IVT5). Kind of experiment: Inhibition of KSR1 activation Loop (SKNVFYDNGK) in human PBMC at 0.1 uM.
The target of experiment [3] is Tyrosine-protein kinase Yes (Homo sapiens) (UniProt P07947). Kind of experiment: Inhibition of YES activation Loop (QGAKFPIKWTAPEAALYGR) in human PBMC at 1 uM.
Experiment [4] addresses Interferon-induced, double-stranded RNA-activated protein kinase (Homo sapiens) (UniProt P19525). Kind of experiment: Inhibition of PKR activation Loop (IGDFGLVTSLKNDGKR) in human PBMC at 1 uM.
Experiment [5] has as its target Serine/threonine-protein kinase 10 (Homo sapiens) (UniProt O94804). Nature of the experiment: Inhibition of LOK conserved Lys2 (DLKAGNVLMTLEGDIR) in human PBMC at 1 uM. Conditions: pooled result: one value given for 6 cell lines, strains, targets or settings.
The target in experiment [6] is T2, Tyrosine-protein kinase JAK3 (Homo sapiens) (UniProt P52333).
T2 sequence (whole entry): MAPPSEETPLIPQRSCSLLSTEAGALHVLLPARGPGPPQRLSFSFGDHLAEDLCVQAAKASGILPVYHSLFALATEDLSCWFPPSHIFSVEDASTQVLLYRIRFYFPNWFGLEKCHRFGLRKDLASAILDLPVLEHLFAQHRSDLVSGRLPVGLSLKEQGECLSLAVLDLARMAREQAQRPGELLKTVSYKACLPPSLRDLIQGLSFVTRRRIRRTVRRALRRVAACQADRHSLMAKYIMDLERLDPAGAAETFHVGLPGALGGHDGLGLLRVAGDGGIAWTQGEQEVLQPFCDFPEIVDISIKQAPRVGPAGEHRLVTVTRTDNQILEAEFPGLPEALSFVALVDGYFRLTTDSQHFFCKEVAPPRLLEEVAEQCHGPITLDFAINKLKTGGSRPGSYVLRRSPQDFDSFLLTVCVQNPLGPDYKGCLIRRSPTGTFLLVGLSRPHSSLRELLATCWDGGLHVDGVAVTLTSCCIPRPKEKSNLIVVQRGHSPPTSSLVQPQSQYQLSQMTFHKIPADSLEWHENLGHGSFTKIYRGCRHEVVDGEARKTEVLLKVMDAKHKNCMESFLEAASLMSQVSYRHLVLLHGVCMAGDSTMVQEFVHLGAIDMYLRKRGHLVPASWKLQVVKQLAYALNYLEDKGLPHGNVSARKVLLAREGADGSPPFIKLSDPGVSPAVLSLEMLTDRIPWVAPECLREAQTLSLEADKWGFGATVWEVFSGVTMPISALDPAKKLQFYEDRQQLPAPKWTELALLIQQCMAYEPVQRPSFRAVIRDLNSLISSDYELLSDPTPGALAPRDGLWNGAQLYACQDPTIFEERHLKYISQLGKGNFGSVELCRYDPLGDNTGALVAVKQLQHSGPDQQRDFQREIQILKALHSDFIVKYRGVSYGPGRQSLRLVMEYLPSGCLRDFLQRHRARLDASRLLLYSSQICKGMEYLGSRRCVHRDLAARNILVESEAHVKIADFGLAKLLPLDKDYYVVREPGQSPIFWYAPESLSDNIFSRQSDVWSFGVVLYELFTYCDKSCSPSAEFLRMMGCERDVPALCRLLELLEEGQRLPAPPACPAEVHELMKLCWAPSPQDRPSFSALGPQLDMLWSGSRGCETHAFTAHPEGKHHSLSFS
Nature of the experiment: Inhibition of JAK3 domain2 activation Loop (IADFGLAKLLPLDKDYYVVR) in human PBMC at 0.1 uM.

In experiment [7] the target is Ribosomal protein S6 kinase alpha-3 (Homo sapiens) (UniProt P51812). Kind of experiment: Inhibition of RSK2 domain1 activation Loop (LTDFGLSKESIDHEKK) in human PBMC at 1 uM.
Experiment [8] deals with Ribosomal protein S6 kinase alpha-2 (Homo sapiens) (UniProt Q15349). Kind of experiment: Inhibition of RSK3 domain1 conserved Lys2 (DLKPENILLDEEGHIK) in human PBMC at 0.1 uM.
Experiment [9] has as its target Serine/threonine-protein kinase SMG1 (Homo sapiens) (UniProt Q96Q15). Kind of experiment: Inhibition of SMG1 ATP binding site (SYPYLFKGLEDLHLDER) in human PBMC at 0.1 uM.
Experiment [10] addresses G protein-coupled receptor kinase 6 (Homo sapiens) (UniProt P43250). Nature of the experiment: Inhibition of GPRK6 conserved Lys2 (DLKPENILLDDHGHIR) in human PBMC at 1 uM.
Experiment [11] has as its target Serine/threonine-protein kinase PLK1 (Homo sapiens) (UniProt P53350). Kind of experiment: Inhibition of PLK1 conserved Lys1 (CFEISDADTKEVFAGKIVPK) in human PBMC at 1 uM.

Sequence of Tyrosine-protein kinase Yes (Homo sapiens) (P07947 2-543 limits assumed): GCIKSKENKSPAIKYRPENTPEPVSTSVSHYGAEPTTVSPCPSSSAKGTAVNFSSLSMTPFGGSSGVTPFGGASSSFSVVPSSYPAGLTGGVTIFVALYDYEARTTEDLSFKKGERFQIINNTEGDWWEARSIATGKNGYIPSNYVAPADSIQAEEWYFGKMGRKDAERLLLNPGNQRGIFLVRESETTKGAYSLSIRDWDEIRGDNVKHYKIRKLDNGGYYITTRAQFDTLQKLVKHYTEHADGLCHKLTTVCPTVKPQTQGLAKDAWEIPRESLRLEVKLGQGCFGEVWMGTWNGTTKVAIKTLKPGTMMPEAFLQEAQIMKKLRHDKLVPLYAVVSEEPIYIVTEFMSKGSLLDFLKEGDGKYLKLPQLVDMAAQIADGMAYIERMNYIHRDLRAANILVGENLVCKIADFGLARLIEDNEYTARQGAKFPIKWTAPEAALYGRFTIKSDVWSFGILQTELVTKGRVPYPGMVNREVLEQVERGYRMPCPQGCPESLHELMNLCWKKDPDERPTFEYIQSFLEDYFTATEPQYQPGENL
Sequence of Serine/threonine-protein kinase 10 (Homo sapiens) (O94804 whole entry, looked up): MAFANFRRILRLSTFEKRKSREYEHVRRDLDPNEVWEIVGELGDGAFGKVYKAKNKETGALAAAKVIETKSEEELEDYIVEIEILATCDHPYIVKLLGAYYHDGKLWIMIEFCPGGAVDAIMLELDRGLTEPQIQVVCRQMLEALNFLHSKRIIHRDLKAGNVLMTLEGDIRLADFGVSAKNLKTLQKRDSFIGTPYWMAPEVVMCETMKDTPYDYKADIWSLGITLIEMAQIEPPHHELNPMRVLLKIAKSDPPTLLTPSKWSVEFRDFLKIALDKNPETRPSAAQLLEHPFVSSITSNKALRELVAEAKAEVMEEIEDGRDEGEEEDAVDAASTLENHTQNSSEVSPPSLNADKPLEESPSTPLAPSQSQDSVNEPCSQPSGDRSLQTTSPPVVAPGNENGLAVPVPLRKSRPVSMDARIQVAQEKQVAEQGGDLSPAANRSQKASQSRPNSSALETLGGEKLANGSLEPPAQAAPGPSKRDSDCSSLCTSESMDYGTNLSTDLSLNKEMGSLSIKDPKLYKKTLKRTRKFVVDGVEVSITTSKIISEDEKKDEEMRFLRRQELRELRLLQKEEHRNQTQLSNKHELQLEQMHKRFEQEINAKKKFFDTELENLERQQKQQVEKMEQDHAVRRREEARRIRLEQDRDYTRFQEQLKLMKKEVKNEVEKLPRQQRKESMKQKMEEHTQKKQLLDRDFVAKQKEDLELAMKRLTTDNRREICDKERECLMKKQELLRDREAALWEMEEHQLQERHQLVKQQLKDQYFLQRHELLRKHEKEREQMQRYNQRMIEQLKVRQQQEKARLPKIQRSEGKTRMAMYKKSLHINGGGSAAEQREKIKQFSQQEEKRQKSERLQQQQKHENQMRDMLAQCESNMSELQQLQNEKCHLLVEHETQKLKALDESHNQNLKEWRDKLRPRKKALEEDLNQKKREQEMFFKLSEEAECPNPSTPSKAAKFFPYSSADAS
Sequence of Kinase suppressor of Ras 1 (Homo sapiens) (Q8IVT5 whole entry): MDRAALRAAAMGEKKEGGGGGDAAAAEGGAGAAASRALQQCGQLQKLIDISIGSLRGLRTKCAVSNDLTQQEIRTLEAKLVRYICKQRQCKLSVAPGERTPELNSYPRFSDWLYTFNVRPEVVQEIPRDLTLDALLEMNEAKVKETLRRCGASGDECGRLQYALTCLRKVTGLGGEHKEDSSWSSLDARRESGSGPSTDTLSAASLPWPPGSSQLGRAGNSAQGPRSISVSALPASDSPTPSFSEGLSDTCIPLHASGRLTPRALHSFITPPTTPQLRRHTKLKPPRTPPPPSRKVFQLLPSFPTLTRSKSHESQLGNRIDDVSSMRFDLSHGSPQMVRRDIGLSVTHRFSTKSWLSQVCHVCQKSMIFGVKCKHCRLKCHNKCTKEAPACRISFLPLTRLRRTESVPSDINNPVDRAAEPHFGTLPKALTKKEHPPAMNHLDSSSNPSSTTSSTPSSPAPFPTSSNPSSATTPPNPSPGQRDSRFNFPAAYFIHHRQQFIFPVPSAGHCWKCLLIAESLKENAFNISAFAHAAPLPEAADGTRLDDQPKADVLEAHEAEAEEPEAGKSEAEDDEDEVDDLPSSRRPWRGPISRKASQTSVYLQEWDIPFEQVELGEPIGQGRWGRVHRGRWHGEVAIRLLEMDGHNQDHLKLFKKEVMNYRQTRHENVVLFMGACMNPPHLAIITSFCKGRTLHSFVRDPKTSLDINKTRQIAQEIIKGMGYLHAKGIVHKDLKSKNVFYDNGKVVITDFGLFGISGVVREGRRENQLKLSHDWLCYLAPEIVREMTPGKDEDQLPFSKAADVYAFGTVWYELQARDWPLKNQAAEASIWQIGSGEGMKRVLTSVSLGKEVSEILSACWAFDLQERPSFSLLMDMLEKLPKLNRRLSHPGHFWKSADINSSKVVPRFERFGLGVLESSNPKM
Sequence of Interferon-induced, double-stranded RNA-activated protein kinase (Homo sapiens) (P19525 whole entry): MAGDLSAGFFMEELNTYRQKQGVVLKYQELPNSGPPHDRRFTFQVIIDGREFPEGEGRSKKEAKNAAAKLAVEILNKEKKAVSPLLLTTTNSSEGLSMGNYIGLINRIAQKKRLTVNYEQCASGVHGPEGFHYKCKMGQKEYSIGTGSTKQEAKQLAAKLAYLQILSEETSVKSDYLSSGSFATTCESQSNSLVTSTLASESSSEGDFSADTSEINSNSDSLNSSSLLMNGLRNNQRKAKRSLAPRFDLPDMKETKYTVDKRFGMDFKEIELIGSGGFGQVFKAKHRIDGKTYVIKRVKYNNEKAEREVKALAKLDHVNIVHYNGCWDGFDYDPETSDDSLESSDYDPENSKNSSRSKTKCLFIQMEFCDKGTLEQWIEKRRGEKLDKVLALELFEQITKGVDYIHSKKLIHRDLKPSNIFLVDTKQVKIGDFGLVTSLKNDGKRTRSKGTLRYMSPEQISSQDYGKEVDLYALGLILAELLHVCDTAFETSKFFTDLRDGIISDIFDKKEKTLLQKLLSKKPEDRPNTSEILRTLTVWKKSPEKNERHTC
Sequence of Serine/threonine-protein kinase PLK1 (Homo sapiens) (P53350 whole entry): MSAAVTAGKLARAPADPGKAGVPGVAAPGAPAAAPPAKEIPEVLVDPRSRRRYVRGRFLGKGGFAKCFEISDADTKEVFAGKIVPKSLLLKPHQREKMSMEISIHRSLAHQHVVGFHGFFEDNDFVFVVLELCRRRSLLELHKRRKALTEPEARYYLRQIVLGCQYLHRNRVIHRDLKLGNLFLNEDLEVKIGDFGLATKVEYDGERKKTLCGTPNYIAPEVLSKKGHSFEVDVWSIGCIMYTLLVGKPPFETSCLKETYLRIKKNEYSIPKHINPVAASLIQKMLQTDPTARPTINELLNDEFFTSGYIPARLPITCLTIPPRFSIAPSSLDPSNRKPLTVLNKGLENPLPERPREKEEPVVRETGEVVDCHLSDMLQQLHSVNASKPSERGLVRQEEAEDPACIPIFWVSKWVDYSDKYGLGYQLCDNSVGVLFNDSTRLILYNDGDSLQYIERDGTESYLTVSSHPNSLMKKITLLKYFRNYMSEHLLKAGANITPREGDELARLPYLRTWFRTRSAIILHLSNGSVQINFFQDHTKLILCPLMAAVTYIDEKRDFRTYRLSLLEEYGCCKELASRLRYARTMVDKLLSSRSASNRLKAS
Sequence of Ribosomal protein S6 kinase alpha-2 (Homo sapiens) (Q15349 whole entry, the tested form may be a part): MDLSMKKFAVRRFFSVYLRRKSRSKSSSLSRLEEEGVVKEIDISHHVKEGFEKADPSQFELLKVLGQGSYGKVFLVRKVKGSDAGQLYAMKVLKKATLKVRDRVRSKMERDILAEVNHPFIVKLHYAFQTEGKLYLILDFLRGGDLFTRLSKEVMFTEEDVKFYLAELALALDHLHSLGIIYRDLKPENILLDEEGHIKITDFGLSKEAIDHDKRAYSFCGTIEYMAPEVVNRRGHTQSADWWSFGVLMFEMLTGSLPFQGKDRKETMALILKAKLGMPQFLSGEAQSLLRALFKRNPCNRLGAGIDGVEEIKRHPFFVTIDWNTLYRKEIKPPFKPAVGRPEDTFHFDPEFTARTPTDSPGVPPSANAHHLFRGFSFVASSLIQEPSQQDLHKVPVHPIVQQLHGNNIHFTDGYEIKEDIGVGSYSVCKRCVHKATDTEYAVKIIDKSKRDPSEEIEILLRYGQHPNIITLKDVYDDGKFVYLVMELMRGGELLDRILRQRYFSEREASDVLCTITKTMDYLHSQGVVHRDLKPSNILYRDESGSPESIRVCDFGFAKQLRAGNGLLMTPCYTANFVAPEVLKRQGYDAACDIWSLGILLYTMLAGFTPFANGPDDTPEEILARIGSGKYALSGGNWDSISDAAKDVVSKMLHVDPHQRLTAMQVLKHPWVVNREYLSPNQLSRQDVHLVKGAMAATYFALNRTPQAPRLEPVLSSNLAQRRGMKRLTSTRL
Sequence of Ribosomal protein S6 kinase alpha-3 (Homo sapiens) (P51812 whole entry, the tested form may be a part): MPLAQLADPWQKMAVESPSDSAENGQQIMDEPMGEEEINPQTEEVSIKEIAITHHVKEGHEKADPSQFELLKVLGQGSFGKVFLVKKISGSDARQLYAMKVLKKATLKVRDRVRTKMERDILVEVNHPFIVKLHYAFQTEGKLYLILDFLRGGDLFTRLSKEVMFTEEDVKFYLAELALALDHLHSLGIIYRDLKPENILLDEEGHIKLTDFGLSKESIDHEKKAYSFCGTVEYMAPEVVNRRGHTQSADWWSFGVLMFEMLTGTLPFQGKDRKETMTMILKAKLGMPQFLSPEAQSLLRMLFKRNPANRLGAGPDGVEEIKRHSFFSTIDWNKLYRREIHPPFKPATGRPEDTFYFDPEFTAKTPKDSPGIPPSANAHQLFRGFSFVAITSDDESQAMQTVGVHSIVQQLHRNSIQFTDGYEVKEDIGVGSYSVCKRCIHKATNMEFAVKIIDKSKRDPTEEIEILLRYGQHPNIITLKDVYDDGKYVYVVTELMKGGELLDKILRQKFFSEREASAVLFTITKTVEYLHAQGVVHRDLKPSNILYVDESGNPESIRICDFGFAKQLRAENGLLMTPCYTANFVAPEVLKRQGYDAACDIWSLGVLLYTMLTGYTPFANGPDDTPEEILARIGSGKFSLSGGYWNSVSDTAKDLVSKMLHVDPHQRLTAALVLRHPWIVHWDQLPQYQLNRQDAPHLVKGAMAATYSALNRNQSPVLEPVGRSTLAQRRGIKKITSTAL

As to `CC(C)n1cc(-c2cc(-c3ccc(CN4CCOCC4)cc3)cnc2N)nn1`, the inhibition in experiment [1] was 8%; in experiment [2] it was 20.4%; in experiment [3], -2.3%; in experiment [4], -3.7%; in experiment [5] it was 14.5%; in experiment [6], 15.9%. The inhibition was 22% in experiment [7]; 11.8% in experiment [8]; 12.7% in experiment [9]; -10% in experiment [10]; 16% in experiment [11].
